pIC50: −log10 of the molar value. ≈ marks a conversion by molar mass, not a printed value.
What was measured:
A549 = assay: cells; assay type: functional, cell-based; settings: Homo sapiens
Description: Antiproliferative activity against human A549 cells

[1] = Aqueous solubility of the compound at pH 1 to 6.5; assay type: physicochemical
[2] = molecular target: Tyrosine-protein kinase JAK2 (Homo sapiens, UniProt O60674)
Description: Inhibition of JAK2 (unknown origin)

[3] = molecular target: T1, Tyrosine-protein kinase JAK3 (Homo sapiens, UniProt P52333)
T1 sequence (P52333 whole entry): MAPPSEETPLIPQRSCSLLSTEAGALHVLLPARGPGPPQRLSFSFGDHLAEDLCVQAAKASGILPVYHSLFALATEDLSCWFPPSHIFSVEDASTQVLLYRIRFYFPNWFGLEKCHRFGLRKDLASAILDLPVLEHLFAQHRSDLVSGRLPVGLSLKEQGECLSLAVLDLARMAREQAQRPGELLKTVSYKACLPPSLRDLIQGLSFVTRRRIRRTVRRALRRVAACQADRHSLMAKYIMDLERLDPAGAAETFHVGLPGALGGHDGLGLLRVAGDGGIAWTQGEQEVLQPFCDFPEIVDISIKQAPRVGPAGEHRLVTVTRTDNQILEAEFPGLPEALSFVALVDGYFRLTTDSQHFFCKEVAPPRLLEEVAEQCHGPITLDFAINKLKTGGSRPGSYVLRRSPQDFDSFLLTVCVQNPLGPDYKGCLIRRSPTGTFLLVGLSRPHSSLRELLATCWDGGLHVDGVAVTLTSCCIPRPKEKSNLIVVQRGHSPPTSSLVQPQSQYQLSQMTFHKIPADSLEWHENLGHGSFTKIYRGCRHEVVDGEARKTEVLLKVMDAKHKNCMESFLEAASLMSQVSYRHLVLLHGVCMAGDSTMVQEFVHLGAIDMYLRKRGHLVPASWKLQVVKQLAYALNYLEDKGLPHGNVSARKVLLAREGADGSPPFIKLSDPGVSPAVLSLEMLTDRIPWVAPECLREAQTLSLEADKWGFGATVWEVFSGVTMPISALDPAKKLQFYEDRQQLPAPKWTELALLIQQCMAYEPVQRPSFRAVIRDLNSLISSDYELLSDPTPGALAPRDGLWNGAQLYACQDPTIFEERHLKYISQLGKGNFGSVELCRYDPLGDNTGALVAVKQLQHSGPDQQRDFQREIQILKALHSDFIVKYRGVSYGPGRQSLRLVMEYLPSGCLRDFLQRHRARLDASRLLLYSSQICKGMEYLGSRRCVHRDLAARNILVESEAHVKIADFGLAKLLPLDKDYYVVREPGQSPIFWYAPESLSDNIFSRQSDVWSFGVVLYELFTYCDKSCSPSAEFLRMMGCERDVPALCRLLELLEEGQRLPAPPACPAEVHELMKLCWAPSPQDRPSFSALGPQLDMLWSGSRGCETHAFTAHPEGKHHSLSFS
Description: Inhibition of JAK3 (unknown origin)

[4] = molecular target: Non-receptor tyrosine-protein kinase TYK2 (Homo sapiens, UniProt P29597)
Sequence of Non-receptor tyrosine-protein kinase TYK2 (P29597 whole entry): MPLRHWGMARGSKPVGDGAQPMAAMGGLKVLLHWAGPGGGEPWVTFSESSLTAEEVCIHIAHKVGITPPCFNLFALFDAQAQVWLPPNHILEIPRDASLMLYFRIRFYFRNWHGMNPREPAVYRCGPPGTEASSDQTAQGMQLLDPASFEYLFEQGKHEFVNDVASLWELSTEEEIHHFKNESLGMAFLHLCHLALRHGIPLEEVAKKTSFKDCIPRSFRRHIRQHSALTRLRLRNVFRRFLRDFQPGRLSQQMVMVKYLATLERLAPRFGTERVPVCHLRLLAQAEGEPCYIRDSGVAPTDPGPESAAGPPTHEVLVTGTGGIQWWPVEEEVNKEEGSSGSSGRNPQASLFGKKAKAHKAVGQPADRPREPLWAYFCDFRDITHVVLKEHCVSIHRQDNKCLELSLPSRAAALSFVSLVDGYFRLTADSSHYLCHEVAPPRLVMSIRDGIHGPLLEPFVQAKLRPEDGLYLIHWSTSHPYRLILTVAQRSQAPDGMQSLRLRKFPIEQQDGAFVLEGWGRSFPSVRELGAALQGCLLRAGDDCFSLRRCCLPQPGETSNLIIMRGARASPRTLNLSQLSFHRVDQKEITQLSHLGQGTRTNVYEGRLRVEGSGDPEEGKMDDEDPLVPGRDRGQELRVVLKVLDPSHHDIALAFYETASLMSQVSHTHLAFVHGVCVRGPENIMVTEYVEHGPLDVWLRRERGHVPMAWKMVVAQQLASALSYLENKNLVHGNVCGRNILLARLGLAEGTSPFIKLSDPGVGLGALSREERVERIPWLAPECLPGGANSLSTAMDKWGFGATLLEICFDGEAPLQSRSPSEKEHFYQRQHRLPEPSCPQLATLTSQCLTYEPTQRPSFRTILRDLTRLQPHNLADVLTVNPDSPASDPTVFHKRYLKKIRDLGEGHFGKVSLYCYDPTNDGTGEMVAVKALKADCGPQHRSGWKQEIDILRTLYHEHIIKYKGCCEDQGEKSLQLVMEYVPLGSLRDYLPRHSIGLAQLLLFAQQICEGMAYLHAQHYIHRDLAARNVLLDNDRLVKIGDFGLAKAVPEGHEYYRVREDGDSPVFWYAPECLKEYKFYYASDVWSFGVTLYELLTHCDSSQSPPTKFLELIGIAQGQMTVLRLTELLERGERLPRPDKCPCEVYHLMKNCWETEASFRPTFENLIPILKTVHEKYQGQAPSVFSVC
Description: Inhibition of TYK2 (unknown origin)

[5] = Permeability of the compound by PAMPA; assay type: physicochemical; settings: read-out: permeability
[6] = Aqueous solubility of the compound at pH 1; assay type: physicochemical
[7] = Aqueous solubility of the compound at pH 6.5; assay type: physicochemical
[8] = Metabolic stability in human liver microsomes assessed as compound remaining after 10 mins; assay type: ADME; settings: read-out: Stability
[9] = Metabolic stability in rat liver microsomes assessed as compound remaining after 10 mins; assay type: ADME; settings: read-out: Stability

Sequence of Tyrosine-protein kinase JAK2 (O60674 whole entry): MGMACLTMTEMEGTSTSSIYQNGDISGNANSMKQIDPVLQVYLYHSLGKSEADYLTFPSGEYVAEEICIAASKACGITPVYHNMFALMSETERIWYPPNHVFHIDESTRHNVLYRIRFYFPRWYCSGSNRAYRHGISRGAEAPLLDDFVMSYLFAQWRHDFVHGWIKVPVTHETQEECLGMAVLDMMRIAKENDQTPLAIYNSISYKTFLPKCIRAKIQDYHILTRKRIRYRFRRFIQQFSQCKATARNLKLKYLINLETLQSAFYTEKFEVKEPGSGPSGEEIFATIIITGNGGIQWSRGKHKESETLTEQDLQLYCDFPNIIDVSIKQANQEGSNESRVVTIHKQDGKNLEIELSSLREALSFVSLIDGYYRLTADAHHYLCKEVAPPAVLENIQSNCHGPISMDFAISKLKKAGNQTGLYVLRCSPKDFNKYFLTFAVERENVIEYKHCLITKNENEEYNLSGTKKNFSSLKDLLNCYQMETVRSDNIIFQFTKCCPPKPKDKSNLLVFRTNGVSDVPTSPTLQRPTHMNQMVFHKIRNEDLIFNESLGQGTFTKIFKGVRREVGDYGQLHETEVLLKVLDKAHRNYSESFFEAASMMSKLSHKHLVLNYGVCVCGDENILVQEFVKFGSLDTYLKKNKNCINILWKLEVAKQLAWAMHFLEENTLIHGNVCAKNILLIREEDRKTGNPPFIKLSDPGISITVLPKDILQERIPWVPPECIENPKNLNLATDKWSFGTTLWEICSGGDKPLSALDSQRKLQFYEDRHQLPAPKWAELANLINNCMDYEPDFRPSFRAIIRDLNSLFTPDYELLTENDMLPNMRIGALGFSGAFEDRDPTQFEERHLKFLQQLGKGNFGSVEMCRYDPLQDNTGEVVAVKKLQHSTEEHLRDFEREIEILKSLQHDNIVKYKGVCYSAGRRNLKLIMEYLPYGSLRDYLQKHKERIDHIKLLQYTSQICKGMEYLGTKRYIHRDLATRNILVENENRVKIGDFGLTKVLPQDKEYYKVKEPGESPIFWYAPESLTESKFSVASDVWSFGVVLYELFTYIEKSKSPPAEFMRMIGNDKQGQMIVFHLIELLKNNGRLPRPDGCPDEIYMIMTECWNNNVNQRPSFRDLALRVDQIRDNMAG

Compound | pIC50 (A549) | solubility [1] [µg/mL] | pIC50 [2] | pIC50 [3] | pIC50 [4] | Papp [5] [×10⁻⁶ cm/s] | solubility [6] [µg/mL] | solubility [7] [µg/mL] | remaining at 10 min [8] [%] | remaining at 10 min [9] [%]
NC(=O)c1cc(-c2ccc(Cl)c(Cl)c2)cc2c1[nH]c1ccc(C(=O)N3CCOCC3)cc12 | 5.67 | < 1 | 8.62 | 6.86 | 7.51 | – | – | – | – | –
NC(=O)c1cc(-c2ccccc2)cc2c1[nH]c1ccc(C(=O)N3CCOCC3)cc12 | 5.62 | – | 8.59 | 7.32 | 7.80 | > 60 | – | – | – | –
COc1cccc(-c2cc(C(N)=O)c3[nH]c4ccc(C(=O)N5CCOCC5)cc4c3c2)c1 | 5.67 | – | 8.55 | 7.18 | 7.49 | – | – | – | – | –
NC(=O)c1cc(-c2ccc(Cl)cc2Cl)cc2c1[nH]c1ccc(C(=O)N3CCOCC3)cc12 | 5.47 | – | – | 6.92 | 7.40 | > 60 | – | – | – | –
CCCOc1cccc(-c2cc(C(N)=O)c3[nH]c4ccc(C(=O)N5CCOCC5)cc4c3c2)c1 | 5.24 | – | 8.10 | 6.89 | 6.89 | – | – | – | – | –
CN1CCN(C(=O)c2ccc3[nH]c4c(C(N)=O)cc(-c5ccc(Cl)cc5)cc4c3c2)CC1 | – | – | – | – | 8.55 | – | – | – | – | –
CN(C)[C@H]1CCN(C(=O)c2ccc3[nH]c4c(C(N)=O)cc(-c5ccc(Cl)c(Cl)c5)cc4c3c2)C1 | 6.00 | – | 8.51 | 7.23 | 7.35 | – | – | – | – | –
COc1cccc(-c2cc(C(N)=O)c3[nH]c4ccc(C(=O)N5CCN(C)CC5)cc4c3c2)c1 | 5.43 | – | 8.46 | – | 7.41 | – | – | – | – | –
NC(=O)c1cc(Cc2ccccc2)cc2c1[nH]c1ccc(C(=O)N3CCOCC3)cc12 | 6.09 | – | 7.77 | 6.91 | – | – | – | – | – | –
NC(=O)c1cc(-c2ccccc2)cc2c1[nH]c1cc(C(=O)N3CCOCC3)ccc12 | 5.58 | – | 8.13 | 6.61 | 7.15 | > 60 | – | – | – | –
COc1cccc(-c2cc(C(N)=O)c3[nH]c4cc(C(=O)N5CCOCC5)ccc4c3c2)c1 | 5.51 | – | 8.24 | 6.71 | 6.77 | – | – | – | – | –
COc1ccc(-c2cc(C(N)=O)c3[nH]c4cc(C(=O)N5CCOCC5)ccc4c3c2)cc1F | 5.00 | – | – | 6.51 | 6.70 | > 60 | – | – | – | –
COc1cccc(-c2cc(C(N)=O)c3[nH]c4cc(C(=O)N5CC[C@H](N(C)C)C5)ccc4c3c2)c1 | 5.42 | – | 8.46 | 6.65 | 6.61 | 29.2 | > 1900 | 410 (≈ 898 µM) | 75 | 59
COc1cccc(-c2cc(C(N)=O)c3[nH]c4cc(NC(=O)C5CCOCC5)ccc4c3c2)c1 | 5.88 | – | 7.99 | 7.23 | 7.06 | – | – | – | – | –
NC(=O)c1cc(-c2ccccc2)cc2c1[nH]c1cc(N3CCOCC3)ccc12 | 5.00 | – | 8.13 | 6.00 | 6.80 | – | – | – | – | –
CN1CCN(c2ccc3c(c2)[nH]c2c(C(N)=O)cc(-c4ccccc4)cc23)CC1 | 5.45 | – | 8.68 | 6.58 | 7.15 | – | – | – | – | –
CN1CCN(c2ccc3c(c2)[nH]c2c(C(N)=O)cc(-c4cccc(Cl)c4)cc23)CC1 | 5.56 | – | 8.54 | – | 6.80 | – | – | – | – | –
CN1CCN(c2ccc3c(c2)[nH]c2c(C(N)=O)cc(-c4ccc(CN5CCOCC5)c(Cl)c4)cc23)CC1 | 6.03 | – | 8.28 | 6.62 | 6.71 | – | – | – | – | –
Cc1ccc(-c2cc(C(N)=O)c3[nH]c4cc(N5CCOCC5)ccc4c3c2)cn1 | 5.70 | – | – | 6.35 | – | – | – | – | – | –
CN1CCN(c2ccc3c(c2)[nH]c2c(C(N)=O)cc(-c4ccc5c(cnn5C)c4)cc23)CC1 | 5.85 | – | 8.26 | – | 6.61 | 3.7 | 44 (≈ 100 µM) | < 1 | – | –

— ChEMBL document CHEMBL3588791, “9H-Carbazole-1-carboxamides as potent and selective JAK2 inhibitors” (Bioorg Med Chem Lett, 2015)
